Laboratory results from the NIST ThermoML archive (doi:10.1007/s10765-010-0742-8).
“And” between values parts separate entries of the source, which are not always exact repeats. Identical values can stand only once. Numbers after ± are expanded uncertainties.

Legend:
[1] = mn = molality of the nth substance listed, in mol/kg; conditions: 101 kPa, Liquid, m1 = 0.1; for viscosity: Capillary tube (Ostwald / Ubbelohde) method; for mass density: Pycnometric method
[2] = refractive index (Na D-line) (dimensionless); mn = molality of the nth substance listed, in mol/kg; conditions: 101 kPa, Liquid, Standard Abbe refractometry, m1 = 0.1

O=C[C@H](O)[C@@H](O)[C@@H](O)[C@H](O)CO [(+)-galactose] + O
viscosity ([1]; 298.15 K): 0.9284 ± 0.0067 mPa·s
mass density ([1]; 298.15 K): 1003.9 ± 0.3 kg/m3
viscosity ([1]; 303.15 K): 0.8345 ± 0.0061 mPa·s
mass density ([1]; 303.15 K): 1002.3 ± 0.4 kg/m3 and 1002.4 ± 0.4 kg/m3
viscosity ([1]; 308.15 K): 0.7518 ± 0.0055 mPa·s
mass density ([1]; 308.15 K): 1001 ± 0.4 kg/m3
viscosity ([1]; 313.15 K): 0.6858 ± 0.0051 mPa·s
mass density ([1]; 313.15 K): 999.5 ± 0.4 kg/m3
refractive index ([2]; 298.15 K): 1.3345 ± 0.0004
refractive index ([2]; 303.15 K): 1.334 ± 0.0004 and 1.3339 ± 0.0004
refractive index ([2]; 308.15 K): 1.3335 ± 0.0004
refractive index ([2]; 313.15 K): 1.3329 ± 0.0004
